# Laboratory results reported in US4654348A, “Pyrazolo[4,3-d]pyrimidine derivative, process for its production, antihyperlipidemic agent containing it, its intermediate, and process for the production of the intermediate” (Nissan Chemical Industries Ltd., priority 1984, dated 1987).
# System: not listed separately
# Experiment: Test 2: Acute toxicity (mortality after seven days)
# Type: in vivo
# Settings: mouse, in vivo, po, 8000 mg/kg p.o., male ddY mice
# Experimental: The test compounds suspended in 0.5% CMC-Na were administered p.o. to male ddY mice. The acute toxicity was determined based on the mortality after seven days. In respect of the compounds of Examples 1, 9, 10 and 11 of the present invention, the mortality was 0% even at a dose of as high as 8000 mg/kg by oral administration.
row,Compound,mortality at 168 h [%]
1,"CCCCCCCCCCCCCCCCOc1c2ncnc(SCC(=O)OCC)c2nn1C [Example 1, 2-Methyl-3-n-hexadecyloxy-7-ethoxycarbonylmethylthio-pyrazolo[4,3-d]pyrimidine]",0

# System: emulsion-induced hyperlipidemic rats
# Experiment: Test 1: antihyperlipidemic activity in emulsion-induced hyperlipidemic rats (serum Chol, HDL-Chol, liver weight)
# Type: in vivo, male S.D. rats
# Settings: Rattus norvegicus, po, 72 h, 300 mg/kg/day via stomach tube, 3 days, vs control, read-out: Increase rate of serum HDL-Chol
# Experimental: The antihyperlipidemic activity in emulsion-induced hyperlipidemic rats:
# Male S.D. rats weighing 80-90 g (4 weeks old) were used. They were divided into groups of 5 to 6 rats each. The test compounds suspended in 0.5% CMC-Na(carboxymethyl cellulose sodium salt) were given to the rats in a daily dose of 4 ml/kg (i.e. 300 mg/kg of the test compounds) via stomach tube every 10:00 a.m. After 30 min., lipids emulsion having the following composition was orally given to the rats in an amount of 2.5 ml per rat.
# Cholic acid sodium salt 10.0 g
# During the experimental period of 3 days, the rats were fed on a standard commercial diet and water ad libitum. […] The total cholesterol and HDL cholesterol were measured.
# The weight of the liver was measured. To the control group, only the aqueous CMC-Na solution and the lipids emulsion were given.
# The fractionation of lipoproteins was conducted by a dextran sulfate-MgCl2 precipitation method.
# Cholesterol in serum was measured by means of a cholesterol measuring kit (Cholesterol C-Test Wako, manufactured by Wako Junyaku Co., Ltd.), and cholesterol in HDL was measured by means of NC Hi-Set, manufactured by Nippon Chemiphar Co., Ltd.
# Further, the reduction rate of Chol was calculated by the following equation. [formula] where A is the amount of serum Chol (mg/dl) of the control group, and B is the amount of serum Chol (mg/dl) of the group to which the therapeutic agent was administered.
# Likewise, the increase rate of HDL-Chol was calculated by the following equation. [formula] where C is the amount of serum HDL-Chol (mg/dl) of the control group, and D is the amount of serum HDL-Chol (mg/dl) of the group to which the therapeutic agent was administered.
# The degree of hepatomegaly (i.e. the change rate of the liver weight) was calculated by the following equation. [formula] where E is the liver weight (g) per 100 g of the body weight of the control group, and F is the liver weight (g) per 100 g of the body weight of the group to which the therapeutic agent was administered.
row,Compound,change in vivo at 300 mg/kg [%]
1,"CCCCCCCCCCCCCCCCOc1c2ncnc(SCC(=O)OCC)c2nn1C [Example 1, 2-Methyl-3-n-hexadecyloxy-7-ethoxycarbonylmethylthio-pyrazolo[4,3-d]pyrimidine]",42

# Same assay, conditions: Rattus norvegicus, po, 72 h, 300 mg/kg/day via stomach tube, 3 days, vs control, read-out: Reduction rate of serum Chol.
row,Compound,inhibition in vivo at 300 mg/kg [%]
1,"CCCCCCCCCCCCCCCCOc1c2ncnc(SCC(=O)OCC)c2nn1C [Example 1, 2-Methyl-3-n-hexadecyloxy-7-ethoxycarbonylmethylthio-pyrazolo[4,3-d]pyrimidine]",58
2,"CCOC(=O)CSc1ncnc2c(OCCOCc3ccc(C(C)(C)C)cc3)n(C)nc12 [Example 38, 2-Methyl-3-[2-(4-t-butylbenzyloxy)ethoxy]-7-ethoxycarbonylmethylthio-pyrazolo[4,3-d]pyrimidine]",15
3,"CCCCOCCOCCOc1c2ncnc(SCC(=O)OCC)c2nn1C [Example 39, 2-Methyl-3-(3,6-dioxadecyloxy)-7-ethoxycarbonylmethylthio-pyrazolo[4,3-d]pyrimidine]",11
4,"CCOC(=O)CSc1ncnc2c(OCCC(C)CCCC(C)CCCC(C)CCCC(C)C)n(C)nc12 (stereo not shown) [Example 40, 2-Methyl-3-(3,7,11,15-tetramethylhexadecyloxy)-7-ethoxycarbonylmethylthio-pyrazolo[4,3-d]pyrimidine]",50
5,"CCOC(=O)CSc1ncnc2c(OCCC(C)CCCC(C)CCCC(C)C)n(C)nc12 (stereo not shown) [Example 41, 2-Methyl-3-(3,7,11-trimethyl-dodecyloxy)-7-ethoxycarbonylmethylthio-pyrazolo[4,3-d]pyrimidine]",48
6,"CCCCCCCCOc1c2ncnc(SCC(=O)OCC)c2nn1C [Example 42, 2-Methyl-3-n-octyloxy-7-ethoxycarbonylmethylthio-pyrazolo[4,3-d]pyrimidine]",32
7,"CCCCCCCCCCCCCCC(C)Oc1c2ncnc(SCC(=O)OCC)c2nn1C (stereo not shown) [Example 43, 2-Methyl-3-(1-methylpentadecyloxy)-7-ethoxycarbonylmethylthio-pyrazolo[4,3-d]pyrimidine]",28
8,"CCCCCCCCC#CCCCCCCCCOc1c2ncnc(SCC(=O)OCC)c2nn1C [Example 44, 2-Methyl-3-(9-octadecynyloxy)-7-ethoxycarbonylmethylthio-pyrazolo[4,3-d]pyrimidine]",39
9,"C=CCCCCCCCCOc1c2ncnc(SCC(=O)OCC)c2nn1C [Example 45, 2-methyl-3-(9-decenyloxy)-7-ethoxycarbonylmethylthio-pyrazolo[4,3-d]pyrimidine]",22
10,"CCOC(=O)CSc1ncnc2c(OCCCC(C)=O)n(C)nc12 [Example 46, 2-Methyl-3-(4-oxo-pentyloxy)-7-ethoxycarbonymethylthio-pyrazolo[4,3-d]pyrimidine]",11
11,"CCC=CCCOc1c2ncnc(SCC(=O)OCC)c2nn1-c1ccccc1 [Example 47, 2-Phenyl-3-(3-hexenyloxy)-7-ethoxycarbonylmethylthio-pyrazolo[4,3-d]pyrimidine]",10
12,"CCOC(=O)CSc1ncnc2c(OCCOCc3ccc(C(C)(C)C)cc3)n(-c3ccccc3)nc12 [Example 48, 2-Phenyl-3-[2-(4-t-butylbenzyloxy)ethyloxy]-7-ethoxycarbonylmethylthio-pyrazolo[4,3-d]pyrimidine]",34
13,"CCCCSCCOc1c2ncnc(SCC(=O)OCC)c2nn1-c1ccccc1 [Example 49, 2-Phenyl-3-(3-thia-heptyloxy)-7-ethoxycarbonylmethylthio-pyrazolo[4,3-d]pyrimidine]",14
14,"CCCCCCCC/C=C\CCCCCCCCOc1c2ncnc(SCC(=O)OCC)c2nn1-c1ccccc1 [Example 50, 2-Phenyl-3-oleyloxy-7-ethoxycarbonylmethylthio-pyrazolo[4,3-d]pyrimidine]",35
15,"C=CCCCCCCCCOc1c2ncnc(SCC(=O)OCC)c2nn1-c1ccccc1 [Example 51, 2-Phenyl-3-(9-decenyloxy)-7-ethoxycarbonylmethylthio-pyrazolo[4,3-d]pyrimidine]",58
16,"CCCCCCCCCCCCCCCCOc1c2ncnc(SCC(=O)OCC)c2nn1-c1ccccc1 [Example 52, 2-Phenyl-3-n-hexadecyloxy-7-ethoxycarbonylmethylthio-pyrazolo[4,3-d]pyrimidine]",30
17,"CCCC=CCCOc1c2ncnc(SCC(=O)OCC)c2nn1-c1ccccc1 [Example 53, 2-Phenyl-3-(3-heptenyloxy)-7-ethoxycarbonylmethylthio-pyrazolo[4,3-d]pyrimidine]",11

row,Compound,inhibition in vivo at 300 mg/kg [%]
1,"CCCCC/C=C\C/C=C\CCCCCCCCOc1c2ncnc(SCC(=O)OC)c2nn1C [Example 54, 2-Methyl-3-linoleyloxy-7-methoxycarbonylmethylthio-pyrazolo[4,3-d]pyrimidine]",79
2,"CCCCC/C=C\C/C=C\CCCCCCCCOc1c2ncnc(SCCCCCC)c2nn1C [Example 55, 2-Methyl-3-linoleyloxy-7-n-hexylthio-pyrazolo[4,3-d]pyrimidine]",58
3,"CCCCC/C=C\C/C=C\CCCCCCCCOc1c2ncnc(SCC(=O)OCCCC)c2nn1C [Example 56, 2-Methyl-3-linoleyloxy-7-n-butoxycarbonylmethylthio-pyrazolo[4,3-d]pyrimidine]",60
4,"CCCCC/C=C\C/C=C\CCCCCCCCOc1c2ncnc(SCC#N)c2nn1C [Example 57, 2-Methyl-3-linoleyloxy-7-cyanomethylthio-pyrazolo[4,3-d]pyrimidine]",61
5,"CCCCC/C=C\C/C=C\CCCCCCCCOc1c2ncnc(SC(C)C(=O)OCC)c2nn1C (stereo not shown) [Example 58, 2-Methyl-3-linoleyloxy-7-(1-ethoxycarbonylethylthio)-pyrazolo[4,3-d]pyrimidine]",32
6,"CCCCC/C=C\C/C=C\CCCCCCCCOc1c2ncnc(SCCCC(=O)OCC)c2nn1C [Example 59, 2-Methyl-3-linoleyloxy-7-[3-(ethoxycarbonyl)propylthio]-pyrazolo[4,3-d]pyrimidine]",68
7,"CCCCC/C=C\C/C=C\CCCCCCCCOc1c2ncnc(SCCCCC(=O)OCC)c2nn1C [Example 60, 2-Methyl-3-linoleyloxy-7-[4-(ethoxycarbonyl)butylthio]-pyrazolo[4,3-d]pyrimidine]",22
8,CCCCC/C=C\C/C=C\CCCCCCCCOc1c2ncnc(SCCCCCCCCCCC(=O)OCC)c2nn1C [Example 61],35
9,"CCCCC/C=C\C/C=C\CCCCCCCCOc1c2ncnc(SCc3ccccc3)c2nn1C [Example 62, 2-Methyl-linoleyloxy-7-benzylthio-pyrazolo[4,3-d]pyrimidine]",17
10,"CCCCC/C=C\C/C=C\CCCCCCCCOc1c2ncnc(SC(C(=O)OCC)C(C)C)c2nn1C (stereo not shown) [Example 63, 2-Methyl-3-linoleyloxy-7-(1-ethoxycarbonyl-2-methylpropylthio)pyrazolo[4,3-d]pyrimidine]",39
11,"C=CCSc1ncnc2c(OCCCCCCCC/C=C\C/C=C\CCCCC)n(C)nc12 [Example 64, 2-Methyl-3-linoleyloxy-7-allylthio-pyrazolo[4,3-d]pyrimidine]",12
12,"CCCCCCCC/C=C\CCCCCCCCCCCCOc1c2ncnc(SCC(=O)OCC)c2nn1C [Example 69, 2-Methyl-3-erucyloxy-7-ethoxycarbonylmethylthio-pyrazolo[4,3-d]pyrimidine]",59
13,"CCCCCCCC/C=C/CCCCCCCCOc1c2ncnc(SCC(=O)OCC)c2nn1C [Example 70, 2-Methyl-3-elaidyloxy-7-ethoxycarbonylmethylthio-pyrazolo[4,3-d]pyrimidine]",63
14,"CCCCCCCCCCC/C=C\CCCCCOc1c2ncnc(SCC(=O)OCC)c2nn1C [Example 71, 2-Methyl-3-petroselinyloxy-7-ethoxycarbonylmethylthio-pyrazolo[4,3-d]pyrimidine]",64
15,"CCCCCC/C=C/CCCCCCCCCCOc1c2ncnc(SCC(=O)OCC)c2nn1C [Example 72, 2-Methyl-3-vaccenyloxy-7-ethoxycarbonylmethylthio-pyrazolo[4,3-d]pyrimidine]",58
16,"C=CCCCCCCCCCOc1c2ncnc(SCC(=O)OCC)c2nn1C [Example 73, 2-Methyl-3-(10-undecenyloxy)-7-ethoxycarbonylmethylthio-pyrazolo[4,3-d]pyrimidine]",27
17,"CCCCCCC#CCCOc1c2ncnc(SCC(=O)OCC)c2nn1C [Example 74, 2-Methyl-3-(3-decynyloxy)-7-ethoxycarbonylmethylthio-pyrazolo[4,3-d]pyrimidine]",16

# Same assay, conditions: liver weight per 100 g body weight, 300 mg/kg/day, 3 days, vs control
row,Compound,Degree of hepatomegaly (change rate of the liver weight)
1,"CCCCCCCCCCCCCCCCOc1c2ncnc(SCC(=O)OCC)c2nn1C [Example 1, 2-Methyl-3-n-hexadecyloxy-7-ethoxycarbonylmethylthio-pyrazolo[4,3-d]pyrimidine]",+8%
